In patent publication US10227310B2, “Ghrelin 0-acyl transferase inhibitors” (Eli Lilly and Company, priority 2015, dated 2019):

Key:
human GOAT = human GOAT (Homo sapiens (Human), UniProt Q96T53); assay: In vitro cell free human GOAT enzymatic assay; format: biochemical; settings: cell free human GOAT enzyme, ELISA readout of acyl-ghrelin
Description: Human GOAT gene (Accession number: NM_001100916) is subcloned to pAN51 baculoviral expression vector. Baculovirus stock is prepared following the Bac-to-Bac Protocol provided by the vendor, Invitrogen, California, USA. Five mililiters of human GOAT baculoviral stock are added to 500 mL Sf9 cells in HyQ SFX-Insect™ media (HyClone catalog number SH30278.02) at the density of 1×10^6 cells per milliliter in a 2 L Erlenmeyer flask. The flask with human GOAT gene infected Sf9 cells is put on a plate shaker at 120 rpm at 28° C. for 48 h. After 48 h incubation, cells are centrifuged at 1,000×g for 10 min at 4° C. The cell pellets are collected and stored at −80° C. in a freezer until ready for further processing.
Preparation of Microsomal Membrane of GOAT Enzyme for the Enzymatic Assay:
One gram cell pellets are suspended in 9 mL chilled homogenization buffer (50 mM Tris-HCl, 250 mM sucrose, adjusted to pH 7.5, and sterile filtered through 0.2 μm Millipore filter). The cell suspension is transferred to a Dounce glass homogenizer. Cell pellets are homogenized with 40 strokes on ice. The homogenate is centrifuged at 3,000 rpm in a Beckman swing bucket rotor at 4° C. for 10 min to remove unbroken cells. The supernatant is collected and centrifuged at 40,000×g for 1 h at 4° C. The resulting membrane pellet is suspended in the homogenization buffer using a Dounce glass homogenizer and stored at −20° C. in the freezer for the assay. For long term storage of the human GOAT enzyme membrane preparation, the suspended membrane is stored in a −80° C. freezer.
Human GOAT Enzymatic Assay Protocol:
Prepare test compounds in DMSO to make up a 0.2 mM stock solution. Serially dilute the stock solution in DMSO for ten concentrations with final compound concentrations ranging from 10 μM to 0.5 nM in a 96-well round-bottom plate. Prepare enzyme and substrate solutions in assay buffer (0.02% TWEEN™-20 in 50 mM Tris, pH 7.5 containing 250 mM sucrose, 1 mg/mL BSA and 10 mM EDTA). Add diluted compound (1 μL) to each well of row A to N of a corresponding low protein binding 384 well plate. […] Incubate the mixture for 1 h at RT on a gently rotating oscillator. Add 4 M guanidine hydrochloride (20 μL) to all wells, mix, and incubate for 3 h to stop the reaction.
Aspirate the blocking buffer from ELISA plate and add blocking buffer (23 μL) to columns 1-24, rows A-N. Reserve rows O and P for the acylghrelin standard curve. Add the reaction mixture (2 μL) to the ELISA plates. […] Incubate the reaction mixture or biotin-labeled AG standard in the ELISA plate overnight at 4° C. The following day, wash the plate 3× with wash buffer (0.1% TWEEN™-20/PBS, 100 μL per well in each wash cycle). […] Wash the plate 3× with the wash buffer, similarly to the previous step. Add Protein G-HRP (25 μL) (Southern Biotech) diluted 3,000× in blocking buffer and incubate 1 h at RT. Wash the late 3× with wash buffer, as in the previous steps. Add TMB reagent (25 μL) (Kirkegaard & Perry Laboratories, Inc.) to each well and let develop for 20 min and stop with 1 M phosphoric acid (25 μL per well). Read plates at 450 nm using an ENVISION® Multilabel plate reader. AG levels are calculated versus a fitted standard curve and percent inhibition calculated.

GOAT enzyme = GOAT enzyme (Mus musculus (Mouse), UniProt P0C7A3); assay: In vivo dose dependent 3 day BID study for GOAT inhibitor (plasma AG, UAG by ELISA); set-up: species or system male C57BL/6 mice; settings: mice; for decrease of plasma AG / increase of UAG / reduction in AG to total ghrelin ratio: 3 days; for decrease of plasma AG / increase of UAG: vs vehicle; for reduction in AG to total ghrelin ratio: vs vehicle-treated control animals; for AG (% of control) / AG/Total-ghrelin (% of vehicle control) / UAG (% of vehicle control): plasma
GOAT enzyme, sequence (P0C7A3 whole entry): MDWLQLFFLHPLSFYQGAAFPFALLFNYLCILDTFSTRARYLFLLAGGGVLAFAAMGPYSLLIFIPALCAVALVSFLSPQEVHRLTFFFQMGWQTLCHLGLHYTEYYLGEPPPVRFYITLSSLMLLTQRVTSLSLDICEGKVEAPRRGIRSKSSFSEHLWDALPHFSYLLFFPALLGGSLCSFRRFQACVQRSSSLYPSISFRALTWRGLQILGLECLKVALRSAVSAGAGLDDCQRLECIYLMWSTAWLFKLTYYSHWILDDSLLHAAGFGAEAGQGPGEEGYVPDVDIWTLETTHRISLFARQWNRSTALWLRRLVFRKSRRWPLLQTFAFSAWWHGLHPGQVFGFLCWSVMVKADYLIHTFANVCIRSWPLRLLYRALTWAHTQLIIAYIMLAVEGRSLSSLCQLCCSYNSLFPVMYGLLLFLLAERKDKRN
Description: Comparing the change in the ratio of AG to total ghrelin in the compound treated group and that of the vehicle treated group reflects the degree of GOAT enzyme inhibition in vivo, due to the dynamic processing of UAG to AG by the GOAT enzyme. In the in vivo pharmacodynamic studies herein, the levels of AG and UAG in plasma and stomach in the vehicle and compound treated groups are measured by ELISA specifically to these two analytes. The total ghrelin level of each sample is computed as the sum of AG and UAG by these ELISA measurements. The ratio of AG to total ghrelin is defined by the level of AG in each sample divided by the level of total ghrelin in the same sample. The levels of AG, UAG and ratio of AG to total ghrelin in the vehicle treated group is computed and set as 100%. The relative change of these parameters in the compound treated group is then computed to determine the effectiveness of the test compound.
Purchase male C57BL/6 mice from Harlan (Indianapolis, Ind.) at 9 weeks of age. House the mice individually in a temperature-controlled (24° C.) facility with a 12 h light/dark cycle (lights on 2200 h), and allow free access to a standard rodent chow (diet 2014, Harlan) and water. Typically, use the mice when they are 10-13 weeks of age at the time of the study. On day 0 of the experiment, randomize the mice into treatment groups (N=7/group) so each group has similar mean body weights. On day 1 and day 2, treat the animals with vehicle (1% hydroxyethylcellulose, 0.25% TWEEN™ 80, 0.05% antifoam) or test compound prepared in the vehicle as suspension at various dosages by oral gavage at 7 am and 7 pm. On day 3, fast the animals, move them into clean cages and dose with vehicle or the test compound again at 8 am by oral gavage. That same day at 1 pm, sacrifice the animals by decapitation to collect blood. For details of blood collection and plasma treatments see Blood collection and Extraction of Ghrelin from Plasma section below.
Collect approximately 600 μL blood into a pre-weighed EDTA tube containing 600 μL (defined as Vpreservative) freshly-prepared preservative (4 mM PEFABLOC® [4-(2-aminoethyl) benzenesulfonyl fluoride hydrochloride], 72 mM NaCl, 58 mM NaF, 0.032 N hydrochloric acid, pH 3.0) and mix immediately. Weigh the tube again and keep on ice. To accurately determine the exact blood volume of each sample using this blood collection procedure, the weight of the blood for each mouse is computed using the following equation: Weight of Blood=(Weight of the tube containing Blood+preservative)−(Weight of the tube containing preservative) Blood volume(Vblood)=(Weight of blood)/1.06
Within 15 minutes after the blood collection, samples are centrifuged at 5000 rpm at 4° C. for 8 min. Remove plasma (650 μL) to a 5 mL glass tube containing 1 N hydrochloric acid (65 μL), mix and keep on ice.
AG and UAG are extracted from plasma using SEP-PAK® C18 column to remove interference prior to performing the ELISA. The solid phase extraction of AG and UAG peptides by SEP-PAK® C18 columns can be performed on a vacuum manifold (Waters Corp) or using a peristaltic pump. The sample SEP-PAK® column extraction procedure is independently applied to the plasma sample obtained from each individual mouse. The general extraction protocol is described as follows.
All solutions used for the entire protocol of the SEP-PAK® column extraction should be at ice cold condition. Wet SEP-PAK®_columns (WAT054960, Waters Corp, Milford Mass.) with 99.9% ACN/0.1% TFA (1 mL of solution of 100 mL ACN/0.1 mL TFA). […] Once liquid is removed from the column, stop the pressure. Equilibrate the columns with 3% ACN/0.1% TFA (1 mL of 97 mL water, 3 mL ACN, 0.1 mL TFA). […] Dilute approximately 650 μL acidified plasma (defined as Vplasma added to column) to 1.4 mL ice cold 0.1% TFA. Load all diluted acidified plasma from the previous step onto the columns. […]

human GOAT, sequence (Q96T53 whole entry): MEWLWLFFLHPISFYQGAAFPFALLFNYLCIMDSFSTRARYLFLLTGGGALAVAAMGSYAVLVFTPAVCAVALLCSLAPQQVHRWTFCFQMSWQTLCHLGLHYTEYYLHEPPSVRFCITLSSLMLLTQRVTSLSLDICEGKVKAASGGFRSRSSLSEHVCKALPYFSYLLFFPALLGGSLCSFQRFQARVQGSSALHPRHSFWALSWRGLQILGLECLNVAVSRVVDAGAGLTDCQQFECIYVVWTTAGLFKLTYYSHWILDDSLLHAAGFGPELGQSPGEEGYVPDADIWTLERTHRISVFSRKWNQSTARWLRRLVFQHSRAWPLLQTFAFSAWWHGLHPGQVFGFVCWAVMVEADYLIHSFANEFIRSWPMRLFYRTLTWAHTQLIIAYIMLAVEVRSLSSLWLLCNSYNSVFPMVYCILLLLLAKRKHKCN

Cc1nc(Cl)nc(N)c1CCC1CCN(C(=O)[C@H](C)NC(=O)c2cn[nH]c2C)CC1 [Example 2, N-[(1S)-2-[4-[2-(4-Amino-2-chloro-6-methyl-pyrimidin-5-yl)ethyl]-1-piperidyl]-1-methyl-2-oxo-ethyl]-5-methyl-1H-pyrazole-4-carboxamide]
IC50 (human GOAT): 54.4 nM

Cc1nc(N)c(CCC2CCCN(C(=O)[C@H](C)NC(=O)c3ccncc3)CC2)c(Cl)n1 (stereo partly drawn) [Example 37, N-[(1S)-2-[(4R,S)-4-[2-(4-Amino-6-chloro-2-methyl-pyrimidin-5-yl)ethyl]azepan-1-yl]-1-methyl-2-oxo-ethyl] pyridine-4-carboxamide]
IC50 (human GOAT): 574 nM

Cc1nc(N)c(CCC2CCN(C(=O)[C@H](C)NC(=O)c3cnc(C)s3)CC2)c(Cl)n1 [Example 42, N-[(1S)-2-[4-[2-(4-Amino-6-chloro-2-methyl-pyrimidin-5-yl)ethyl]-1-piperidyl]-1-methyl-2-oxo-ethyl]-2-methyl-thiazole-5-carboxamide]
decrease of plasma AG (GOAT enzyme; 0.3 mg/kg): 51% | increase of UAG (GOAT enzyme; 0.3 mg/kg): 1.61 fold | reduction in AG to total ghrelin ratio (GOAT enzyme; 0.3 mg/kg): 61% | decrease of plasma AG (GOAT enzyme; 1 mg/kg): 57% | increase of UAG (GOAT enzyme; 1 mg/kg): 2.04 fold | reduction in AG to total ghrelin ratio (GOAT enzyme; 1 mg/kg): 73% | decrease of plasma AG (GOAT enzyme; 3 mg/kg): 70% | increase of UAG (GOAT enzyme; 3 mg/kg): 2.00 fold | reduction in AG to total ghrelin ratio (GOAT enzyme; 3 mg/kg): 81% | AG (% of control) (GOAT enzyme; 0.3 mg/kg oral BID 3 days): 49 ± 7 (n = 7) % of control | AG/Total-ghrelin (% of vehicle control) (GOAT enzyme; 0.3 mg/kg oral BID 3 days): 39 ± 2 (n = 7) % of vehicle control | UAG (% of vehicle control) (GOAT enzyme; 0.3 mg/kg oral BID 3 days): 161 ± 24 (n = 7) % of vehicle control | AG (% of control) (GOAT enzyme; 1 mg/kg oral BID 3 days): 43 ± 6 (n = 7) % of control | AG/Total-ghrelin (% of vehicle control) (GOAT enzyme; 1 mg/kg oral BID 3 days): 27 ± 1 (n = 7) % of vehicle control | UAG (% of vehicle control) (GOAT enzyme; 1 mg/kg oral BID 3 days): 204 ± 24 (n = 7) % of vehicle control | AG (% of control) (GOAT enzyme; 3 mg/kg oral BID 3 days): 30 ± 4 (n = 7) % of control | AG/Total-ghrelin (% of vehicle control) (GOAT enzyme; 3 mg/kg oral BID 3 days): 19 ± 1 (n = 7) % of vehicle control | UAG (% of vehicle control) (GOAT enzyme; 3 mg/kg oral BID 3 days): 200 ± 20 (n = 7) % of vehicle control | IC50 (human GOAT): 96.4 ± 28.3 nM

Cc1nc(N)c(CCC2CCN(C(=O)[C@H](C)NC(=O)c3ccnn3C)CC2)c(Cl)n1 [Example 66, N-[(1S)-2-[4-[2-(4-Amino-6-chloro-2-methyl-pyrimidin-5-yl)ethyl]-1-piperidyl]-1-methyl-2-oxo-ethyl]-2-methyl-pyrazole-3-carboxamide]
decrease of plasma AG (GOAT enzyme; 0.2 mg/kg): 34% | increase of UAG (GOAT enzyme; 0.2 mg/kg): 2.13 fold | reduction in AG to total ghrelin ratio (GOAT enzyme; 0.2 mg/kg): 50% | decrease of plasma AG (GOAT enzyme; 0.6 mg/kg): 52% | increase of UAG (GOAT enzyme; 0.6 mg/kg): 2.61 fold | reduction in AG to total ghrelin ratio (GOAT enzyme; 0.6 mg/kg): 65% | decrease of plasma AG (GOAT enzyme; 2 mg/kg): 72% | increase of UAG (GOAT enzyme; 2 mg/kg): 2.92 fold | reduction in AG to total ghrelin ratio (GOAT enzyme; 2 mg/kg): 79% | decrease of plasma AG (GOAT enzyme; 6 mg/kg): 79% | increase of UAG (GOAT enzyme; 6 mg/kg): 3.02 fold | reduction in AG to total ghrelin ratio (GOAT enzyme; 6 mg/kg): 84% | decrease of plasma AG (GOAT enzyme; 18 mg/kg): 81% | increase of UAG (GOAT enzyme; 18 mg/kg): 2.79 fold | reduction in AG to total ghrelin ratio (GOAT enzyme; 18 mg/kg): 86% | AG (% of control) (GOAT enzyme; 0.2 mg/kg oral BID 3 days): 66 ± 12 (n = 7) % of control | AG/Total-ghrelin (% of vehicle control) (GOAT enzyme; 0.2 mg/kg oral BID 3 days): 50 ± 3 (n = 7) % of vehicle control | UAG (% of vehicle control) (GOAT enzyme; 0.2 mg/kg oral BID 3 days): 213 ± 27 (n = 7) % of vehicle control | AG (% of control) (GOAT enzyme; 0.6 mg/kg oral BID 3 days): 48 ± 4 (n = 7) % of control | AG/Total-ghrelin (% of vehicle control) (GOAT enzyme; 0.6 mg/kg oral BID 3 days): 35 ± 1 (n = 7) % of vehicle control | UAG (% of vehicle control) (GOAT enzyme; 0.6 mg/kg oral BID 3 days): 261 ± 30 (n = 7) % of vehicle control | AG (% of control) (GOAT enzyme; 2 mg/kg oral BID 3 days): 28 ± 3 (n = 14) % of control | AG/Total-ghrelin (% of vehicle control) (GOAT enzyme; 2 mg/kg oral BID 3 days): 21 ± 1 (n = 14) % of vehicle control | UAG (% of vehicle control) (GOAT enzyme; 2 mg/kg oral BID 3 days): 292 ± 43 (n = 14) % of vehicle control | AG (% of control) (GOAT enzyme; 6 mg/kg oral BID 3 days): 21 ± 3 (n = 7) % of control | AG/Total-ghrelin (% of vehicle control) (GOAT enzyme; 6 mg/kg oral BID 3 days): 16 ± 1 (n = 7) % of vehicle control | UAG (% of vehicle control) (GOAT enzyme; 6 mg/kg oral BID 3 days): 302 ± 48 (n = 7) % of vehicle control | AG (% of control) (GOAT enzyme; 18 mg/kg oral BID 3 days): 19 ± 6 (n = 7) % of control | AG/Total-ghrelin (% of vehicle control) (GOAT enzyme; 18 mg/kg oral BID 3 days): 14 ± 2 (n = 7) % of vehicle control | UAG (% of vehicle control) (GOAT enzyme; 18 mg/kg oral BID 3 days): 279 ± 36 (n = 7) % of vehicle control | IC50 (human GOAT): 68.9 ± 23.6 nM

COC(=O)N[C@@H](C)C(=O)N1CCC(CCc2c(N)nc(C)nc2Cl)CC1 [Example 71, Methyl N-[(1S)-2-[4-[2-(4-amino-6-chloro-2-methyl-pyrimidin-5-yl)ethyl]-1-piperidyl]-1-methyl-2-oxo-ethyl]carbamate]
decrease of plasma AG (GOAT enzyme; 0.3 mg/kg): 13% | increase of UAG (GOAT enzyme; 0.3 mg/kg): 2.87 fold | reduction in AG to total ghrelin ratio (GOAT enzyme; 0.3 mg/kg): 59% | decrease of plasma AG (GOAT enzyme; 1 mg/kg): 37% | increase of UAG (GOAT enzyme; 1 mg/kg): 3.44 fold | reduction in AG to total ghrelin ratio (GOAT enzyme; 1 mg/kg): 73% | decrease of plasma AG (GOAT enzyme; 3 mg/kg): 66% | increase of UAG (GOAT enzyme; 3 mg/kg): 2.90 fold | reduction in AG to total ghrelin ratio (GOAT enzyme; 3 mg/kg): 82% | AG (% of control) (GOAT enzyme; 0.3 mg/kg oral BID 3 days): 87 ± 18 (n = 7) % of control | AG/Total-ghrelin (% of vehicle control) (GOAT enzyme; 0.3 mg/kg oral BID 3 days): 41 ± 3 (n = 7) % of vehicle control | UAG (% of vehicle control) (GOAT enzyme; 0.3 mg/kg oral BID 3 days): 287 ± 43 (n = 7) % of vehicle control | AG (% of control) (GOAT enzyme; 1 mg/kg oral BID 3 days): 63 ± 15 (n = 7) % of control | AG/Total-ghrelin (% of vehicle control) (GOAT enzyme; 1 mg/kg oral BID 3 days): 27 ± 2 (n = 7) % of vehicle control | UAG (% of vehicle control) (GOAT enzyme; 1 mg/kg oral BID 3 days): 344 ± 63 (n = 7) % of vehicle control | AG (% of control) (GOAT enzyme; 3 mg/kg oral BID 3 days): 34 ± 5 (n = 7) % of control | AG/Total-ghrelin (% of vehicle control) (GOAT enzyme; 3 mg/kg oral BID 3 days): 18 ± 1 (n = 7) % of vehicle control | UAG (% of vehicle control) (GOAT enzyme; 3 mg/kg oral BID 3 days): 290 ± 30 (n = 7) % of vehicle control | IC50 (human GOAT): 149 ± 46 nM
